Common to all, as to format: cell-based, human
Assay [1] concerns T cell line of each patient specifically recognizing Cry j 1 or Cry j 2. The assay can be described thus: T cell line proliferation response to overlapping peptides ([3H] thymidine uptake). Particulars: mean stimulation index multiplied by frequency of appearance; T cell lines of 18 patients; 2 μM peptide. The method, then: Peripheral lymphocytes from 18 patients with cedar pollinosis were stimulated by cedar pollen allergen Cry j 1 or Cry j 2to establish the T cell line of each patient capable of specifically recognizing the respective allergen.
A mixture of 5×10^4 cells of the autologous B cell line treated with mitomycin C, 2 μM of an overlapping peptide, and 2×10^4 cells of the T cell line was incubated for 2 days in RPMI-1640 medium supplemented with 0.2 ml of 15% serum on a 96-well culture plate. After 0.5 μCi [^3H] thymidine was added to the medium, incubation was continued for a further 18 hours. After the cells were harvested on a glass filter using a cell harvester, the level of [^3H] thymidine taken up into the cells was determined with a liquid scintillation counter. If the stimulation index is 2 or more, we consider that the added peptide is recognized as an antigenic peptide. The stimulation index means a value obtained by dividing the level of [^3H] thymidine taken up into the cells when the peptide was added by the level of [^3H] thymidine taken up into the cells when no peptide was added.
The HLA class II type is considered to vary in every patient. It is thus assumed that a T cell epitope to be recognized would vary depending on the HLA class II type. For this reason, the antigenic peptide that the patients recognized was mapped for the individual patient. […] On the allergen molecule, there are both regions that can be readily recognized and regions that can hardly be recognized, as a T cell epitope, depending on individuals. Moreover, since the proliferation rate of T cells varies depending on a T cell epitope, the epitope map alone makes it difficult to determine what antigenic peptide should be chosen to design the multi-epitope peptide.

Assay [2] deals with T cell clones that specifically recognize Cry j 1 or Cry j 2. The assay can be described thus: Identifying T cell epitope peptide recognized by T cell clone. Particulars: 2 μM overlapping peptide; clones from patients. The text has this:
Two patients, Patient B (PB) and Patient J (PJ), who recognize Peptide Nos. 43 and 22 showing a high positivity index in Cry j 1 and three patients, who recognize Peptide Nos. 14, 38, 48, and 69 showing a high positivity index in Cry j 2 were selected from the eighteen patients with cedar pollinosis. Peripheral lymphocytes from these patients with cedar pollinosis were stimulated by Cry j 1 or Cry j 2 to establish T cell clones capable of recognizing Cry j 1 or Cry j 2. The types of HLA class I and class II molecules of the four patients are shown below.
Thirty-five T cell clones in total that specifically recognize Cry j 1 were established from the peripheral lymphocytes derived from PB, and 14 similar T cell clones from PJ. Likewise, 31 T cell clones, 10 T cell clones, and 17 T cell clones in total that specifically recognize Cry j 2 were established from the peripheral lymphocytes derived from PB, PC and PR, respectively. […] A mixture of 5×10^4 cells of the autologous B cell line previously treated with mitomycin C, 2 μM of an overlapping peptide, and 2×10^4 cells of the T cell clone was incubated for 2 days in RPMI-1640 medium supplemented with 0.2 ml of 15% serum on a 96-well micro culture plate. […] After the cells were harvested on a glass filter using a cell harvester, the level of [^3H] thymidine taken up into the cells was determined using a liquid scintillation counter. […]

In another assay the test system is HLA class II molecules. As to the kind of experiment: Identifying the HLA class II restriction molecules (transfected mouse L-cells or haplotype-matched B cell line as antigen-presenting cells). Particulars: 2 μM peptide. The procedure: HLA class II restriction molecules can be identified using the T cell clones whose restriction molecules were identified at the HLA class II locus level and, as antigen-presenting cells, mouse L-cells transfected with each type for DR and B cell line having the same haplotype for DQ or DP.
A mixture of 5×10^4 mouse L cells previously treated with mitomycin C of the B cell line coincident in haplotype; 2 μM of an overlapping peptide; 3 μg/ml of anti-DR, -DQ or -DP monoclonal antibody (manufactured by Becton-Dickinson Inc.); and 2×10^4 cells of the T cell clone was incubated for 2 days in RPMI-1640 medium supplemented with 0.2 ml of 15% serum on a 96-well micro culture plate. After 0.5 μCi [^3H] thymidine was added to the medium, incubation was continued for a further 18 hours. After the cells were harvested on a glass filter using a cell harvester, the level of [^3H] thymidine taken up into the cells was determined using a liquid scintillation counter.

Another assay deals with T cell clones. The assay can be described thus: Recognizing the T cell epitopes in the multi-epitope peptide C.A.#4 by T cell clones. The conditions noted are these: clones PB8-3, PB8-34, PB4-22, PB14-5, PB14-3; C.A.#4 10 μg/ml. The method, then: The antigenic peptide constituting the multi-epitope peptide C.A.#4 obtained in Example 6 was examined to determine if the antigenic peptide actually functions as a T cell epitope.
On a 96-well micro culture plate, a mixture of 5×10^4 cells of the autologous B cell line previously treated with mitomycin C and 2×10^4 cells of the T cell clone was incubated for 2 days in 0.2 ml 15% serum-supplemented RPMI-1640 medium, together with, as an antigen, either 50 μg/ml of Cry j 1 and 2 μg/ml of Cry j 2, each antigenic peptide constituting the multi-epitope peptide C.A.#4 or 10 μg/ml C.A.#4 multi-epitope peptide produced by gene expression. After 0.5 μCi [^3H] thymidine was added to the medium, incubation was continued for a further 16 hours. After the cells were harvested on a glass filter using a cell harvester, the level of [^3H] thymidine taken up into the cells was determined using a liquid scintillation counter.

For assay [3], the system named is T cell lines (PJ, PR, PB) and T cell clones (PB 8-3, PB 8-2, PB 9-39). As to the kind of experiment: Determination of core sequence of Cry j 1 peptide No. 22 with T cell lines and clones. The text has this:
To determine the minimum amino acid sequence (core) of the Cry j 1 peptide No. 22 (p106-120) necessary for the T cell line and T cell clone proliferation response, one amino acid residue each was deleted from the N and C terminals of this peptide as shown in FIG. 15 to prepare eleven peptides, i.e., p107-120 (p22-2), P108-120 (p22-3), p109-120 (p22-4), p110-120 (p22-5), p111-120 (p22-6), p106-119 (p22-7), p106-118 (p22-8), p106-117 (p22-9), p106-116 (p22-10), and p106-115 (p22-11) using a peptide synthesizer (PSSM-8, manufactured by Shimadzu Seisakusho Ltd.). The T cell lines (PJ, PR, PB) derived from three patients with cedar pollinosis and which react with Cry j 1 Peptide No. 22, p106-120, and the T cell clones (PB 8-3, PB 8-2, PB 9-39) from one of the patients were examined for the reactivity with these 11 peptides in the same manner as in Examples 1 and 2. […] The results reveal that the p106-120 core sequence consists of nine residues of “FIKRVSNVI”(SEQ ID NO. 7) (the nine residues are designated as Cry j 1 #22 core).

For assay [4], the system named is Cry j 1-specific T cell line. As to the kind of experiment: Reactivity of Cry j 1-specific T cell line. The conditions noted are these: from patients with cedar pollinosis. From the text:
(§1) Two peptides (Cha o 1 #8-Cry j 1 #22 core, Cha o 1 #32-Cry j 1 #22 core) were synthesized by joining Peptide No. 8 (p71-90: […] SEQ ID NO. 11) which is a T cell epitope of hinoki pollen allergen Cha o 1 (Japanese Patent Application N. Hei. 8-15327), or Peptide No. 32 ([…]: […] SEQ ID NO. 12) to Cry j 1 #22 core sequence “FIKRVSNVI”(SEQ ID NO. 7) obtained in Example 14 using a peptide synthesizer (PSSM-8, Shimadzu Seisakusho Ltd.). An RR sequence was inserted between Cha o 1 #8 and Cry j 1 #22 core and between Cha o 1 #32 and Cry j 1 #22 core, that is, Cha o 1 #8-Cry j 1 #22 core (SEQ NO: 4) and Cha o 1 #32-Cry j 1 #22 core (SEQ NO: 5).
(§2) A Cry j 1-specific T cell line and a Cha o 1-specific T cell line were prepared from the patients with cedar pollinosis and hinoki pollinosis, respectively. […] However, these T cell lines all react with the multi-epitope peptide of SEQ NO: 4 and with the multi-epitope peptide of SEQ NO: 5.

Assay [5] concerns Cha o 1-specific T cell line. The assay can be described thus: Reactivity of Cha o 1-specific T cell line. The conditions noted are these: from patients with hinoki pollinosis.
Text: as §1, §2

As for “Cry j 1 Peptide No. 22: Cry j 1 overlapping peptide No. 22, p106-120 (PCVFIKRVSNVIIHG; Figure 15, p22-1.; listed as Cryptomeria japonica)”, the positivity index in assay [1] came to 578. Further, the “recognition of peptide by allergen-specific T cell clones” value in assay [2] is “recognized”. In the assay with HLA class II molecules, the peptide-presenting restriction molecule result is recorded as “DRB5*0101”. In addition, in the assay with T cell clones, the “proliferation response of the T cell clones recognizing the respective epitope” value is “react well”. Further, the proliferation response entry in assay [3] (one T cell line and T cell clone) is reported as “did not show any proliferation response”; in assay [3] (two T cell lines (PJ, PB) and two T cell clones (PB 8-2, PB 9-39)) it was “proliferated”. In addition, in assay [4], the “reactivity of Cry j 1-specific T cell line” value is given as “reacts with”. For the same substance, the “reactivity of Cha o 1-specific T cell line” value in assay [5] is “does not react with”.

As to “KSMKVTVAFNQFGPN [Cry j 1 Peptide No. 43]”, the positivity index in assay [1] turned out to be 679. In assay [2], the “recognition of peptide by allergen-specific T cell clones” value is “recognized”. The peptide-presenting restriction molecule entry with HLA class II molecules is listed as “DPA1*0101-DPB1*0501”. In addition, the “proliferation response of the T cell clones recognizing the respective epitope” value with T cell clones is reported as “react well”.
